Assay results taken from the supplement of paper PMC11061612.

Columns and labels:
[1] = test system: Becker (Low Grade Glioma); assay: Bliss excess, mean over the matrix (fraction); higher = more synergy
In short: (§1)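 Bliss excess equals the observed combination effect minus the expected value EA + EB − EA·EB, where EA and EB are the effects of each agent alone. Combination Emax is the second-highest inhibition within the matrix. Inhibition was scaled from CellTiter-Glo 2.0 luminescence, with 0 set by vehicle wells and 1 by blank wells, after 72 hours of two-drug dosing of cells plated in 1536-well plates.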

[2] = test system: CHL-1 (Melanoma); assay: as above
In short: as §1

[3] = test system: CML-T1 (Chronic Myelogenous Leukemia); assay: as above
In short: as §1

[4] = test system: COLO-684 (Endometrial Carcinoma); assay: as above
In short: as §1

[5] = test system: EB-3 (Burkitt's Lymphoma); assay: as above
In short: as §1

[6] = test system: FLO-1 (Esophageal Adenocarcinoma); assay: as above
In short: as §1

[7] = test system: HCC-44 (Lung Adenocarcinoma); assay: as above
In short: as §1

[8] = test system: KYM-1 (Rhabdomyosarcoma); assay: as above
In short: as §1

[9] = test system: KYSE-70 (Esophageal Squamous Cell Carcinoma); assay: as above
In short: as §1

[10] = test system: LAMA-84 (Chronic Myelogenous Leukemia); assay: as above
In short: as §1

[11] = test system: LOUCY (T-Lymphoblastic Leukemia); assay: as above
In short: as §1

[12] = test system: NCI-H1755 (Lung Adenocarcinoma); assay: as above
In short: as §1

[13] = test system: NCI-H810 (Non-Small Cell Lung Carcinoma); assay: as above
In short: as §1

[14] = test system: NKM-1 (Acute Myeloid Leukemia); assay: as above
In short: as §1

[15] = test system: OV-90 (Ovarian Carcinoma); assay: as above
In short: as §1

[16] = test system: PANC-02-03 (Pancreatic Carcinoma); assay: as above
In short: as §1

[17] = test system: PC-14 (Lung Adenocarcinoma); assay: as above
In short: as §1

[18] = test system: RMG-I (Ovarian Carcinoma); assay: as above
In short: as §1

[19] = test system: SK-MM-2 (Plasma Cell Myeloma); assay: as above
In short: as §1

[20] = test system: SW684 (Other Solid Carcinomas); assay: as above
In short: as §1

[21] = test system: Becker (Low Grade Glioma); assay: combination Emax (second highest fraction inhibited in the dose matrix, 72 h); higher = more inhibition; extreme values may be limits of the assay
In short: as §1

[22] = test system: CHL-1 (Melanoma); assay: as above
In short: as §1

[23] = test system: CML-T1 (Chronic Myelogenous Leukemia); assay: as above
In short: as §1

[24] = test system: COLO-684 (Endometrial Carcinoma); assay: as above
In short: as §1

[25] = test system: EB-3 (Burkitt's Lymphoma); assay: as above
In short: as §1

[26] = test system: FLO-1 (Esophageal Adenocarcinoma); assay: as above
In short: as §1

[27] = test system: HCC-44 (Lung Adenocarcinoma); assay: as above
In short: as §1

[28] = test system: KYM-1 (Rhabdomyosarcoma); assay: as above
In short: as §1

[29] = test system: KYSE-70 (Esophageal Squamous Cell Carcinoma); assay: as above
In short: as §1

[30] = test system: LAMA-84 (Chronic Myelogenous Leukemia); assay: as above
In short: as §1

[31] = test system: LOUCY (T-Lymphoblastic Leukemia); assay: as above
In short: as §1

[32] = test system: NCI-H1755 (Lung Adenocarcinoma); assay: as above
In short: as §1

[33] = test system: NCI-H810 (Non-Small Cell Lung Carcinoma); assay: as above
In short: as §1

[34] = test system: NKM-1 (Acute Myeloid Leukemia); assay: as above
In short: as §1

[35] = test system: OV-90 (Ovarian Carcinoma); assay: as above
In short: as §1

[36] = test system: PANC-02-03 (Pancreatic Carcinoma); assay: as above
In short: as §1

[37] = test system: PC-14 (Lung Adenocarcinoma); assay: as above
In short: as §1

[38] = test system: RMG-I (Ovarian Carcinoma); assay: as above
In short: as §1

[39] = test system: SK-MM-2 (Plasma Cell Myeloma); assay: as above
In short: as §1

[40] = test system: SW684 (Other Solid Carcinomas); assay: as above
In short: as §1

| Structure (SMILES) | Bliss excess [1] | Bliss excess [2] | Bliss excess [3] | Bliss excess [4] | Bliss excess [5] | Bliss excess [6] | Bliss excess [7] | Bliss excess [8] | Bliss excess [9] | Bliss excess [10] | Bliss excess [11] | Bliss excess [12] | Bliss excess [13] | Bliss excess [14] | Bliss excess [15] | Bliss excess [16] | Bliss excess [17] | Bliss excess [18] | Bliss excess [19] | Bliss excess [20] | combination Emax [21] | combination Emax [22] | combination Emax [23] | combination Emax [24] | combination Emax [25] | combination Emax [26] | combination Emax [27] | combination Emax [28] | combination Emax [29] | combination Emax [30] | combination Emax [31] | combination Emax [32] | combination Emax [33] | combination Emax [34] | combination Emax [35] | combination Emax [36] | combination Emax [37] | combination Emax [38] | combination Emax [39] | combination Emax [40] |
| --- | --- | --- | --- | --- | --- | --- | --- | --- | --- | --- | --- | --- | --- | --- | --- | --- | --- | --- | --- | --- | --- | --- | --- | --- | --- | --- | --- | --- | --- | --- | --- | --- | --- | --- | --- | --- | --- | --- | --- | --- |
| O=C(c1cc(Cc2n[nH]c(=O)c3ccccc23)ccc1F)N1CCN(C(=O)C2CC2)CC1 [Olaparib] + CN(CC[C@H](CSC1=CC=CC=C1)NC2=C(C=C(C=C2)S(=O)(=O)NC(=O)C3=CC=C(C=C3)N4CCC(CC4)[C@H](C5=CC=CC=C5C6=CC=C(C=C6)Cl)O)S(=O)(=O)C(F)(F)F)CCO [AZD4320] (first compound max 10 µM, 7x7, partner max 1 µM) | 0.0148 | -0.0175 | 0.0456 | -0.0372 | -0.0394 | -0.0338 | -0.0367 | -0.0543 | -0.0377 | -0.0603 | -0.0261 | -0.0387 | -0.0701 | 0.0827 | -0.0165 | -0.0488 | -0.0113 | -0.0382 | 0.0047 | -0.0717 | 0.164 | 0.2 | 0.999 | 0.213 | 0.158 | 0.39 | 0.173 | 0.576 | 0.151 | 0.617 | 1 | 0.159 | 0.659 | 1 | 0.546 | 0.198 | 0.199 | 0.534 | 1 | 0.228 |
| CN(CCO)CC[C@H](CSc1ccccc1)Nc1ccc(S(=O)(=O)NC(=O)c2ccc(N3CCC([C@@H](O)c4ccccc4-c4ccc(Cl)cc4)CC3)cc2)cc1S(=O)(=O)C(F)(F)F [AZD4320] + CC(=O)O[C@H]1C(=O)[C@@]2(C)[C@H]([C@H](OC(=O)c3ccccc3)[C@]3(O)C[C@H](OC(=O)[C@H](O)[C@@H](NC(=O)c4ccccc4)c4ccccc4)C(C)=C1C3(C)C)[C@]1(OC(C)=O)CO[C@@H]1C[C@@H]2O [Paclitaxel] (first compound max 1 µM, 7x7, partner max 3 µM) | 0.0744 | 0.0578 | -0.0236 | 0.0345 | -0.0733 | 0.0005 | -0.0294 | 0.017 | 0.0722 | 0.0001 | 0.0229 | 0.0211 | 0.237 | 0.0078 | 0.0935 | 0.0109 | 0.0125 | 0.133 | 0.0531 | 0.164 | 1 | 1 | 1 | 0.663 | 0.754 | 0.98 | 0.876 | 1 | 0.597 | 1 | 1 | 0.9 | 0.992 | 1 | 0.932 | 0.597 | 0.996 | 0.94 | 1 | 0.952 |
| CS(=O)(=O)CCNCc1ccc(-c2ccc3ncnc(Nc4ccc(OCc5cccc(F)c5)c(Cl)c4)c3c2)o1 [Lapatinib] + Cn1cnc2c(F)c(Nc3ccc(Br)cc3Cl)c(C(=O)NOCCO)cc21 [Selumetinib] (first compound max 10 µM, 7x7, partner max 10 µM) | -0.0589 | -0.0114 | -0.0822 | -0.0658 | -0.0414 | -0.004 | 0.0326 | 0.0148 | -0.0319 | 0.0352 | 0.0378 | -0.0173 | -0.0554 | 0.0001 | -0.0289 | 0.0604 | 0.0206 | -0.0833 | -0.0116 | -0.0411 | 0.579 | 0.475 | 0.637 | 0.349 | 0.697 | 0.572 | 0.749 | 0.407 | 0.214 | 0.912 | 0.584 | 0.539 | 0.121 | 0.652 | 0.729 | 0.805 | 0.989 | 0.586 | 0.126 | 0.281 |
| C[C@@H]1COCCN1c1cc(C2([S@](C)(=N)=O)CC2)nc(-c2ccnc3[nH]ccc23)n1 [AZD6738] + C1CC(C1)(C(=O)[O-])C(=O)[O-].N.N.[Pt+2] [Carboplatin] (first compound max 10 µM, 7x7, partner max 10 µM) | -0.0224 | -0.0178 | -0.031 | -0.0356 | -0.0876 | -0.0416 | -0.0585 | 0.0183 | -0.0571 | -0.0368 | 0.0054 | -0.0571 | -0.116 | -0.0102 | -0.0638 | -0.0433 | -0.0164 | -0.0502 | -0.0045 | -0.0968 | 0.648 | 0.798 | 0.976 | 0.756 | 0.751 | 0.619 | 0.288 | 0.904 | 0.266 | 0.92 | 0.972 | 0.807 | 0.458 | – | 0.345 | 0.433 | 0.807 | 0.337 | 0.319 | 0.342 |
